Results as given in patent US20090317376A1, “Compositions And Methods For Lipo Modeling” (Georgetown University MEDICAL SCHOOL, priority 2005, published 2009).
“Also recorded” adds a separate entry of the source.

Tested on: 3T3-L1 preadipocytes
Assay: Adipocyte differentiation / adipogenesis (Oil red-O staining, leptin and resistin ELISA)
Format: cell-based, murine
Method: 3T3-L1 preadipocytes are stimulated to differentiate to a rounded phenotype and accumulate lipids in the form of lipid droplets when treated with dexamethasone, isobutylmethylxanthine (IBMX), and insulin [54]. The 3T3-L1 cells are primed for differentiation by the incubation with IBMX and dexamethasone, and in some cells insulin, for 24 hrs, then, insulin is withdrawn and replaced with various concentrations of NPY (FIG. 5).
ELISA: NPY ELISA system are purchased from Penninsula Laboratories, bFGF, VEGF and mouse leptin ELISA kits from R&D systems, mouse adiponectin ELISA kit from Linco Research and catecholamine detection system—3CAT EIA from Diagnostic Systems Laboratories. The assays are performed according to the manufacturers' procedures.
Oil Red O staining: Oil Red O solution (0.36% Oil Red O solution in 60% isopropanol) is used to stain lipid droplets in mature adipocytes and paraffin embedded tissues (Chemicon Adipogenesis Assay kit).
1. Cell culture: 3T3-L1 preadipocyte cells, (gift from Dr. Lane,^34) were cultured in DMEM high glucose media with glutamine, 10% calf sera (Gemini Bioproducts), d-Biotin (8 μg/ml) and Pantothenate (8 μg/ml) (Sigma). SK-N-BE(2) neuroblastoma cells (ATCC) were cultured in EMEM/F12K with 10% fetal bovine sera (FBS). HMVEC endothelial cells (Cambrex) were cultured in endothelial cell growth media (Cambrex). All media was supplemented with 100 units/ml penicillin, 100 μg/ml streptomycin and […] amphotericin. 2. Proliferation assay: Cells were plated onto 96-well dishes, growth-arrested in serum-free media for 24 h, and then were treated with the desired factors for 24 h in the culture media supplemented with 0.25% FBS; 4 hr after treatment 0.5 μCi [^3H] thymidine was added to each well. After 24 h, cells were harvested in a 96-well harvester (Tomtec) and counted in a Betaplate Liquid Scintillation Counter (Wallac). 3. Co-culture: For mitogenic assay and expression studies, co-culture was performed in a Costar Transwell system. Cells were plated on 6-well plates or inserts with 0.4 μm Polyester membranes. At 30% confluence, the inserts were combined with wells containing other cells. Co-culture of neuroblastomas with endothelial cells (EC) were carried out in EC media and preadipocytes in preadipocyte growth media. After the respective treatment, the cells growing on the plates were harvested for RNA isolation. For the mitogenic assay, cells were first growth-arrested in serum-free media for 24 hr, then the inserts placed into the plates and cells treated with desired factors in 0.25% FBS. After 48 hr, the cells were counted with a Beckman Coulter Counter. In both co-culture models, media was collected for Leptin (R&D Systems), Resistin (R&D Systems), and NPY (Bachem) ELISA. 4. Real-time RT-PCR: RNA was isolated using Tri Reagent (Sigma) and cDNA synthesized by iScript cDNA synthesis kit (BioRad). ICycler iQ Detection System (BioRad) was used to perform Real Time PCR. cDNA was amplified for 40 cycles using TaqMan PCR Reagent Kit and pre-designed primers and fluorescein-labeled probes from Applied Biosystems, as previously described^16, according to the manufacturer's procedure. The results were analyzed using software provided by BioRad and expression levels calculated by the comparative CT method using β-actin as an endogenous reference gene, according to the Applied Biosystems' ABI PRISM 7700 User Bulletin #2. 5. TUNEL: TUNEL reaction was performed using In Situ Cell Detection Kit (Roche Diagnostic) and signal converted to visible light using AP-converter. The density of TUNEL positive cells will be measured using NIH ImageJ software (using a plugin written by Wayne Rasband). 6. ELISA: ELISA kits for: NPY (Bachem Laboratories), mouse Leptin, Corticosterone, and Resistin (R&D systems), rat/mouse Insulin and mouse Adiponectin (Linco Research), and mouse Osteocalcin (Biomedical Technologies, Inc.) were used. The assays were performed according to the manufacturers' procedures. 7. […]

## N=C(N)NCCC[C@H](NC(=O)CC1(CC(=O)N2CCN(C3c4ccccc4NC(=O)c4ccccc43)CC2)CCCC1)C(=O)NCCn1c(=O)n(-c2ccccc2)n(-c2ccccc2)c1=O (stereo partly drawn) [BIIE0246]
Y2R antagonist
  block of NPY-induced leptin and resistin secretion and lipid filling: blocked

## neuropeptide Y [NPY]
NPY by itself
  adipogenesis in cells not originally primed by insulin: unable to stimulate adipogenesis
Differentiated 3T3-L1 adipocytes
  leptin secretion: increases leptin secretion; also recorded: increased
Insulin preconditioned / primed 3T3-L1 cells, NPY 1×10-14 to 1×10^-8 M
  differentiation into adipocytes (adipogenesis): stimulated differentiation into adipocytes; also recorded: stimulating adipogenesis
Preadipocytes primed for differentiation
  resistin secretion: increased
Primed 3T3-L1 cells, insulin replaced with NPY
  lipid deposition / lipid filling (Oil red-O staining): markedly increased
